Measurements: article PMC11323563, “Multiple levels of transcriptional regulation control glycolate metabolism in Paracoccus denitrificans” (mBio, 2024)
pKd: −log10 of the molar value.

Assays:
MGlcR = biological target: T1, MGlcR (Paracoccus denitrificans, UniProt A1BAC0); assay: fluorescence polarization, effector titration of 6FAM-Pglc-MGlcR complex; details: 0.1-100 mM effector, 750 nM MGlcR, 10 nM Pglc; pH 7.5, room temperature; effector decreasing DNA binding
T1 construct: gene Pden_4400; Ni-NTA purified
T1 sequence (A1BAC0 1-269): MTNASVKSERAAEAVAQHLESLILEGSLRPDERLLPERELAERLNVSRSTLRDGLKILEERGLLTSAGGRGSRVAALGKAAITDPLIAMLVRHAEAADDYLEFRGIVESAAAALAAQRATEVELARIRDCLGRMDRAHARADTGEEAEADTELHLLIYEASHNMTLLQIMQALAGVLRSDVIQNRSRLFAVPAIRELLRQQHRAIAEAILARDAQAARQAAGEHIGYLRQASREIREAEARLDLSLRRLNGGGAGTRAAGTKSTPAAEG

GlcR = biological target: T2, GlcR (Paracoccus denitrificans, UniProt A1BAC0); assay: EMSA of Pglc DNA-GlcR complex with effector; details: 0.5-2 mM effector; pH 7.0, 37 °C; effector decreasing DNA binding
T2 construct: gene Pden_4400; full length, pET16b His tag (cutting not mentioned), E. coli BL21 AI; Ni-NTA and size exclusion
T2 sequence (A1BAC0 1-269): T1 sequence (A1BAC0 1-269)

BhcR = biological target: T3, BhcR (Paracoccus denitrificans, UniProt A1B8Z4); assay: EMSA of Pbhc DNA-BhcR complex with effector; type: binding; details: 0.1-5 mM effector, pH 7.0, 37 °C
T3 construct: full length, pET16b His tag (cutting not mentioned), E. coli BL21 AI; Ni-NTA and size exclusion

[1] = biological target: T4, GlcR (Paracoccus denitrificans DSM 413) (UniProt A1BAC0); assay: EMSA; details: EMSA: 20 mM K phosphate pH 7.0, 1 mM DTT, 5 mM MgCl2, 50 mM KCl, 15 ug/mL BSA, 50 ug/mL herring sperm DNA, 5% glycerol, 0.1% Tween20, DNA 0.025 pM, 37 C …
T4 sequence: T1 sequence (A1BAC0 1-269)

[2] = biological target: T5, MGlcR (MBP-GlcR) (Paracoccus denitrificans DSM 413) (UniProt A1BAC0); assay: fluorescence polarization
T5 sequence: T1 sequence (A1BAC0 1-269)

[3] = biological target: BhcR (Paracoccus denitrificans DSM 413) (UniProt A1B8Z4); assay: EMSA; details: EMSA: 20 mM K phosphate pH 7.0, 1 mM DTT, 5 mM MgCl2, 50 mM KCl, 15 ug/mL BSA, 50 ug/mL herring sperm DNA, 5% glycerol, 0.1% Tween20, DNA 0.025 pM, 37 C …
[4] = effector increasing DNA binding
[5] = EMSA: 20 mM K phosphate pH 7.0, 1 mM DTT, 5 mM MgCl2, 50 mM KCl, 15 ug/mL BSA, 50 ug/mL herring sperm DNA, 5% glycerol, 0.1% Tween20, DNA 0.025 pM, 37 C …

T3 sequence (A1B8Z4 whole entry): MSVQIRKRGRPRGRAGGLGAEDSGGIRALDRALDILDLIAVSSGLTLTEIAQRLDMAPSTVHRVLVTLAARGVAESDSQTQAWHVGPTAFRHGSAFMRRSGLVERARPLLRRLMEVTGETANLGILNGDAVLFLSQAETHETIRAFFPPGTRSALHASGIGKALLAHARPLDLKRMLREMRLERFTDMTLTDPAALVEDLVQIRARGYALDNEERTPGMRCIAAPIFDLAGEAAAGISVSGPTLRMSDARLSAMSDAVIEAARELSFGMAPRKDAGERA
BhcR (Paracoccus denitrificans DSM 413), sequence (A1B8Z4 whole entry): as above

With `O=C(O)CO` [glycolate] the “fluorescence polarization, effector titration of 6FAM-Pglc-MGlcR complex” value (MGlcR) was “Titration of the Pglc-MGlcR complex with increasing concentrations of glycolate demonstrated a notable decrease in binding” and the “EMSA of Pglc DNA-GlcR complex with effector” value (GlcR) was “DNA binding was decreased in the presence of glycolate”.
`O=CC(=O)O` [glyoxylate] was tested, and the “EMSA of Pbhc DNA-BhcR complex with effector” value (“EMSA of Pbhc DNA-BhcR complex” for short) (BhcR; effector decreasing DNA binding) was “the interaction of BhcR with Pbhc was negatively affected by increasing concentrations of glyoxylate”.
In the case of `O=C(O)C(=O)O` [oxalate], the “EMSA of Pbhc DNA-BhcR complex” value (BhcR; [4]) was “the DNA-binding interaction was positively affected by the presence of pyruvate or oxalate”.
`CC(=O)C(=O)O` [pyruvate] was tested, and the “EMSA of Pbhc DNA-BhcR complex” value (BhcR; [4]) was “the DNA-binding interaction was positively affected by the presence of pyruvate or oxalate”.
“CAAGCTCTCCTCCCTTGGTCGAACGGCAGGCCCGTGTCCTGCCCTGCATTCTTGGTATAATTTTCAGACCACATTAGTCAATCGGTATTTTTCTGGACCGACACGCCCGTCCTGTGCTTACATGGCAGGGATCCGACAACCGCATGAGCGCCCATG (double strand) [Pglc 156 bp]” was tested, and the binding [1] was “binds”.
With “GCTCTCCTCCCTTGGTCGAACGGCAGGCCCGTGTCCTGCCCTGCATTCTTGGTATAATTTTCAGACCACATTAGTCAATCGGTATTTTTCTGGACCGACACGCCCGTCCTGTGCTTACATGGCAGGGATCCGACAACCGCATGAGCGCCC (double strand) [[6FAM]-Pglc]” the pKd [2, 5] was 6.65 and the binding [2, 5] was “binds”.
“GGAATGAAGATCGGGTTCTGGCTGGTCATGGCAATTCCTCCTGCGCTTGTGGACCAAGCTACGTTTTGCTGTCCATTGATGCAATTTTTCTGAAAAATATTTCGCAATCGCGGAAAAATGACCTAAAGTGTCGTGGAATCAGATCGTTGCTCTTTTCCAAAGCCAAAGAGTGATTTTCAACAAACTCAGAAAGTTGTCGAAAGGAAAAATTGAATGTCGGTTCAAATCCGCAAAAGGG (double strand) [Pbhc 238 bp]” was tested, and the binding [3] was “binds”.
[6FAM]-Pglc gave a pKd ([2]; 10 nM DNA) of 6.65.
